Laboratory results published in ChEMBL document CHEMBL6134860, “Discovery and optimization of a novel carboxamide scaffold with selective antimalarial activity” (Eur J Med Chem, 2025).
Converted amounts (≈) assume the structure as drawn.

What was measured:
[1] = system: Plasmodium falciparum; assay: microbe, parasite or virus in culture; type: functional, organism-based; conditions: W2, 72 h
[2] = Cytotoxicity against human HepG2 cells measured after 72 hrs by hoechst 33342 staining based imaging assay; type: toxicity, cell-based
[3] = Lipophilicity, logD of compound at pH 7.4; conditions: buffer
[4] = Metabolic stability in human liver microsomes assessed as half life
[5] = Metabolic stability in human liver microsomes assessed as apparent intrinsic clearance
[6] = Metabolic stability in rat hepatocytes assessed as half life
[7] = Metabolic stability in rat hepatocytes assessed as apparent intrinsic clearance measured per 10^6 cells
[8] = system: Plasmodium falciparum; assay: microbe, parasite or virus in culture; type: functional, organism-based; conditions: C2B, 72 h
[9] = system: Plasmodium falciparum; assay: microbe, parasite or virus in culture; type: functional, organism-based; conditions: C235, 72 h
[10] = system: Plasmodium falciparum; assay: microbe, parasite or virus in culture; type: functional, organism-based; conditions: D6, 72 h
[11] = system: Plasmodium falciparum; assay: microbe, parasite or virus in culture; type: functional, organism-based; conditions: 3D7, 72 h
[12] = system: Plasmodium falciparum; assay: Antiplasmodial activity against Plasmodium falciparum strain NF54 assessed as 99% parasite clearance time in presence of 2% haematocrit and 0.5 % parasitemia at 10 times EC50 followed by media with compound exchanged daily measured after 2 weeks by standard hypoxanthine assay; type: functional
[13] = Aqueous solubility of compound at pH 7.4; conditions: buffer

| Structure (SMILES) | EC50 ([1]; read-out: pEC50 (converted)) [µM] | CC50 at 72 h ([2]; read-out: CC50) [µM] | CC50 at 72 h ([2]; read-out: pCC50 (converted)) [µM] | EC50 ([1]; read-out: EC50) [µM] | also measured |
| --- | --- | --- | --- | --- | --- |
| Cc1ccc(N(C)C(=O)c2ncn(-c3ccc(C)cc3)n2)cc1 | 1.74 | > 10 | > 10 | – | logD [3]: 3.15; half-life [4]: 11.1 min; microsomal CLint [5]: 125 µL/min/mg; half-life [6]: < 7.5 min; CLH(app) [7]: > 92.4 µL/min |
| C[C@H]1[C@@H](O)O[C@@H]2O[C@@]3(C)CC[C@H]4[C@H](C)CC[C@@H]1[C@@]24OO3 [ARTENIMOL] | 0.000417 | – | – | – | EC50 ([8]; read-out: pEC50 (converted)): 0.000178 µM; EC50 ([9]; read-out: pEC50 (converted)): 0.00295 µM; EC50 ([10]; read-out: pEC50 (converted)): 0.00155 µM; EC50 ([11]; read-out: pEC50 (converted)): 0.000661 µM |
| CN(C(=O)c1ncc(-c2ccc(Cl)cc2)o1)c1ccc(Cl)cc1 | 0.17 | – | – | 0.17 | EC50 ([8]; read-out: EC50): 0.168 µM; EC50 ([8]; read-out: pEC50 (converted)): 0.166 µM; EC50 ([9]; read-out: EC50): 0.281 µM; EC50 ([9]; read-out: pEC50 (converted)): 0.282 µM; EC50 ([10]; read-out: EC50): 0.84 µM; EC50 ([10]; read-out: pEC50 (converted)): 0.832 µM; EC50 ([11]; read-out: EC50): 0.502 µM; EC50 ([11]; read-out: pEC50 (converted)): 0.501 µM |
| CCc1nc(N)nc(N)c1-c1ccc(Cl)cc1 [PYRIMETHAMINE] | – | – | – | – | Time [12]: 25.9 h |
| Cc1ccc(-c2cncc(C(=O)N(C)c3ccc(Cl)cc3)c2)cc1 | – | > 10 | > 10 | – | logD [3]: 4.32; half-life [4]: 6.1 min; microsomal CLint [5]: 228 µL/min/mg; half-life [6]: < 7.5 min; CLH(app) [7]: > 92.4 µL/min |
| [2H]C([2H])([2H])N(C(=O)c1cc(-c2ccc(Cl)cc2)ccn1)c1ccc(Cl)cc1 | 0.2 | – | – | 198 | EC50 ([8]; read-out: EC50): 0.104 µM; EC50 ([8]; read-out: pEC50 (converted)): 0.105 µM; EC50 ([9]; read-out: EC50): 0.199 µM; EC50 ([9]; read-out: pEC50 (converted)): 0.2 µM; EC50 ([10]; read-out: EC50): 0.608 µM; EC50 ([10]; read-out: pEC50 (converted)): 0.603 µM; EC50 ([11]; read-out: EC50): 0.588 µM; EC50 ([11]; read-out: pEC50 (converted)): 0.589 µM |
| CCc1ccc(-n2cnc(C(=O)N(C)c3ccc(Cl)cc3)n2)cc1 | 0.617 | > 10 | > 10 | – | – |
| O=C(Nc1ccc(Cl)cc1)c1ncn(-c2ccc(Cl)cc2)n1 | > 6.46 | > 10 | > 10 | > 6.44 | – |
| O=C(Nc1ccc(-c2cc3ccccc3oc2=O)cc1)c1cccc2ccccc12 | > 4.07 | 1.16 | 1.15 | > 4.05 | – |
| O=C(Nc1ncn(-c2ccc(Cl)cc2)n1)c1ccc(Cl)cc1 | 3.09 | > 10 | > 10 | – | – |
| CN(C(=O)c1cnc(-c2ccc(Cl)cc2)[nH]1)c1ccc(Cl)cc1 | > 2.24 | > 10 | > 10 | > 2.26 | – |
| Cc1ccc(-n2cnc(C(=O)N(C)c3ccc(Cl)cc3)n2)cc1 | 1.7 | > 10 | > 10 | 1.68 | – |
| CN(C(=O)c1ncn(-c2ccc(Cl)cc2)n1)c1ccc(Cl)c(Cl)c1 | 0.933 | > 10 | > 10 | – | – |
| Cc1ccc(N(C)C(=O)c2ncn(-c3ccc(Cl)cc3)n2)cc1C | 2.34 | > 10 | > 10 | – | – |
| COc1ccc(N(C)C(=O)c2ncn(-c3ccc(C)cc3)n2)cc1 | > 4.07 | > 10 | > 10 | > 4.11 | – |
| O=C1C(O)=C([C@H]2CC[C@H](c3ccc(Cl)cc3)CC2)C(=O)c2ccccc21 [ATOVAQUONE] | 0.000759 | – | – | – | EC50 ([8]; read-out: pEC50 (converted)): < 1 µM; EC50 ([9]; read-out: pEC50 (converted)): 0.00195 µM; EC50 ([10]; read-out: pEC50 (converted)): 0.000603 µM; EC50 ([11]; read-out: pEC50 (converted)): 0.000851 µM |
| Cc1ccc(-n2cnc(C(=O)N(C)c3cccc(C)c3)n2)cc1 | > 2.82 | > 10 | > 10 | > 2.82 | – |
| CC(=O)c1ccc(N(C)C(=O)c2ncn(-c3ccc(Cl)cc3)n2)cc1 | 2.4 | > 10 | > 10 | – | – |
| Cc1ccc(C(=O)Nc2ncn(-c3ccc(C)cc3)n2)cc1 | 2.51 | > 10 | > 10 | – | – |
| Cc1ccc(-n2cnc(NC(=O)c3ccc(Cl)cc3)n2)cc1 | > 3.02 | > 10 | > 10 | > 2.99 | – |
| Cc1nc(-c2ccc(Cl)cc2)sc1C(=O)N(C)c1ccc(Cl)cc1 | > 10 | > 10 | > 10 | > 10 | – |
| Cc1ccc(N(C)C(=O)c2ncn(-c3ccc(Cl)cc3)n2)cc1 | 0.562 | > 10 | > 10 | – | solubility [13]: 4.4 µM (≈ 1.44 µg/mL); logD [3]: 3.36; half-life [4]: 33.8 min; microsomal CLint [5]: 41.1 µL/min/mg; half-life [6]: < 7.5 min; CLH(app) [7]: > 92.4 µL/min |
